PMC9505826, “A Peptide Inhibitor of the Human Cytomegalovirus Core Nuclear Egress Complex” (Pharmaceuticals, 2022)

Key:
HCMV AD169 = format: cell-based, human cytomegalovirus (HCMV strain AD169); settings: for EC50: HFFs infected with HCMV AD169, MOI 0.1, peptides refreshed at 2, 5 and 7 d p.i., viral genome equivalents in supernatants at 8 d p.i. by qPCR, % of DMSO control, ± standard deviation, at least three independent experiments, read-out: EC50, antiviral effect; for effect on HCMV infection (in words): HFFs infected with HCMV AD169, qPCR of supernatants, concentrations up to 10 µM
Protocol: Primary human foreskin fibroblasts (HFFs) were cultivated in minimal essential medium (MEM). Cell culture media were supplemented with 1× GlutaMAXTM (35050038, Thermo Fisher Scientific), […] gentamicin and 10% fetal bovine serum (FBS, F7524, Sigma Aldrich). All cells were incubated at 37 °C, 5% CO2 and 80% humidity. For infection with human cytomegalovirus (HCMV strain AD169), 2 × 10^5 HFFs were seeded in 12-well plates for 1 day (d) prior to infection at a multiplicity of infection (MOI) of 0.1. After 90 min of viral absorption, cells were incubated with peptides in the culture media media, which was supplemented with 2.5% FBS, 1× GlutaMAX^TM and 10 µg/mL gentamicin, at the indicated concentrations at 37 °C for 4–8 days. Viral supernatants were collected at 4, 6 and 8 days post-infection (d.p.i.).
HFFs were seeded in 12-well plates, used for HCMV infection at a MOI of 0.1 and treated with the indicated concentrations of each peptide. […] The supernatants were centrifuged at 1500× g and digested with proteinase K at 56 °C for 1 h to release viral particles. The reactions were stopped at 95 °C for 5 min. The amount of extracellular viral genomic loads was assessed in […] of each sample by real-time PCR (TaqMan-PCR). Two primers, namely 5′CMV ([…]) and 3′CMV ([…]), which anneal to a sequence within the major immediate early gene region of HCMV, were obtained to amplify and quantify the viral genome. In addition, a FAM/TAMRA-labeled probe was used for detection. The viral load of a sample treated with DMSO only served as a negative control. HCMV genome equivalents from peptide-treated viral supernatants were calculated as % of the negative control.

HFF cells = assay: Neutral Red cytotoxicity assay; format: cell-based, human; settings: peptides 0.008 µM to 100 µM, refreshed on day 5, read on day 7 of peptide treatment
Protocol: HFF cells were cultivated in 96-well plate with a density of 1.35 × 10^4 cells per well and incubated at 37 °C for 24 h. The cultured HFF cells were treated with peptides, at concentrations ranging from 0.008 µM to 100 µM, and incubated at 37 °C. On day 5, peptides were refreshed in the culture media and incubation was continued until day 7. A sample without compound (DMSO) served as a negative control, and a sample with 1 µM staurosporine (STP) as a positive control. On day seven, neutral red solution (40 µg/mL, Sigma Aldrich, N2889) was added to cultivated cells and incubated at 37 °C for […], followed by addition of destaining solution (ethanol/water/acetic acid, 50:49:1). Fluorescence was read at excitation/emission at 560/630 nm to quantify the uptake of neutral red.

[1] = biological target: T1, HCMV pUL50–pUL53 interaction (Human cytomegalovirus, UniProt P16791); assay: pUL50-pUL53 inhibition assay (plate-based, anti-His-HRP detection); format: binding; settings: peptide serial dilutions starting at 10 µM
T1 construct: Recombinant pUL50 and pUL53 were produced and purified as previously described; made in house
Protocol: Inhibition assay. Recombinant pUL50 and pUL53 were produced and purified as previously described. High binding Immulon microtiter plates were coated with 100 µL pUL53 (1 µg/mL) in sodium carbonate buffer pH 9.5, overnight at 4 °C. After blocking with 200 µL 1% BSA in 0.1 M phosphate buffer, pH 7.2, for two hours, plates were incubated with 50 µL peptide in serial dilutions, starting at 10 µM, together with 50 µL His-tagged pUL50 (0.78 µg/mL) for two and a half hours. His-tagged pUL50 was detected using anti-His-HRP (Merck, Darmstadt, Germany, 1:100,000). All proteins and antibodies were in 0.1 M phosphate buffer, pH 7.2, containing 0.1% BSA and 0.01% Tween 20. Plates were washed four times with 0.01% Tween 20 in 0.1 M phosphate buffer, pH 7.2, after each incubation step. Plates were developed with o-phenylenediamine (OPD) (1 mg/mL) in the presence of 0.03% H2O2 for approximately 5 min in the dark. After the reaction was stopped with 50 µL 2 M H2SO4, absorbance was read at 492 nm. IC50 values were determined from the % inhibition data using the program GraphPad. Inhibition was calculated according to the following formula:% Inhibition = [1 − (Asample − Ablank1)/(A100% − Ablank2)] × 100 in which “100%” is a sample without inhibitor, “blank1” is a sample without pUL53, and “blank2” is a sample without pUL53 and without inhibitor.

T1 sequence (P16791 1-175): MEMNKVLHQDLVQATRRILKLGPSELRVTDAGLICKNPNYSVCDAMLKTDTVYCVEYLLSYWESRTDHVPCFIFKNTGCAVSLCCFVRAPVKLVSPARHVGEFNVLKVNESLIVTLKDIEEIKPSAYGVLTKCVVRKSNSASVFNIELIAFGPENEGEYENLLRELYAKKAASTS

SMILES	EC50 (HCMV AD169) [µM]	effect on HCMV infection (in words) (HCMV AD169)	CC50, cytotoxic effect (HFF cells) [µM]	inhibitory effect on the pUL50-pUL53 interaction (in words) [1]
CC[C@H](C)[C@H](NC(=O)[C@H](C)NC(=O)[C@H](CCSC)NC(=O)[C@H](CCCCN)NC(=O)[C@H](CCSC)NC(=O)[C@H](CCSC)NC(=O)[C@H](CC(N)=O)NC(=O)[C@H](CC(C)C)NC(=O)[C@H](Cc1ccc(O)cc1)NC(=O)[C@H](CCCCN)NC(=O)[C@H](CC(C)C)NC(=O)[C@H](CCC(=O)O)NC(=O)[C@H](CC(C)C)NC(=O)[C@H](CCC(=O)O)NC(=O)[C@@H]1CCCN1C(=O)[C@H](Cc1c[nH]cn1)NC(=O)[C@H](CCC(=O)O)NC(=O)[C@H](CCCNC(=N)N)NC(=O)[C@H](Cc1ccccc1)NC(=O)[C@@H](NC(=O)[C@H](CC(=O)O)NC(=O)[C@H](Cc1c[nH]cn1)NC(=O)[C@H](CC(C)C)NC(=O)[C@H](CC(=O)O)NC(=O)[C@H](Cc1c[nH]cn1)NC(=O)[C@H](CC(C)C)NC(=O)[C@@H](NC(=O)[C@H](CC(C)C)NC(C)=O)[C@@H](C)O)[C@@H](C)CC)C(=O)N[C@H](C(N)=O)[C@@H](C)O [Hook peptide]	> 10	no significant effect	>100	
CC[C@H](C)[C@H](NC(=O)[C@H](C)NC(=O)[C@H](CCSC)NC(=O)[C@H](CCCCN)NC(=O)[C@H](CCSC)NC(=O)[C@H](CCSC)NC(=O)[C@H](CC(N)=O)NC(=O)[C@H](CC(C)C)NC(=O)[C@H](Cc1ccc(O)cc1)NC(=O)[C@H](CCCCN)NC(=O)[C@H](CC(C)C)NC(=O)[C@H](CCC(=O)O)NC(=O)[C@H](CC(C)C)NC(=O)[C@H](CCC(=O)O)NC(=O)[C@@H]1CCCN1C(=O)[C@H](Cc1c[nH]cn1)NC(=O)[C@H](CCC(=O)O)NC(=O)[C@H](CCCNC(=N)N)NC(=O)[C@H](Cc1ccccc1)NC(=O)[C@@H](NC(=O)[C@H](CC(=O)O)NC(=O)[C@H](Cc1c[nH]cn1)NC(=O)[C@H](CC(C)C)NC(=O)[C@H](CC(=O)O)NC(=O)[C@H](Cc1c[nH]cn1)NC(=O)[C@H](CC(C)C)NC(=O)[C@@H](NC(=O)[C@H](CC(C)C)NC(=O)COCCOCCNC(=O)[C@@H]1CCCN1C(=O)[C@@H]1CCCN1C(=O)[C@H](CCCNC(=N)N)NC(=O)[C@H](CCCNC(=N)N)NC(=O)[C@H](CCCNC(=N)N)NC(=O)[C@H](CCC(N)=O)NC(=O)[C@H](CCCNC(=N)N)NC(=O)[C@H](CCCNC(=N)N)NC(=O)[C@H](CCCCN)NC(=O)[C@H](CCCCN)NC(=O)[C@H](CCCNC(=N)N)NC(=O)CNC(=O)[C@H](Cc1ccc(O)cc1)NC(=O)COCCOCCNC(=O)[C@H](CCCNC(=N)N)NC(=O)[C@H](CCC(N)=O)NC(=O)[C@H](CCCNC(=N)N)NC(=O)[C@H](CCCNC(=N)N)NC(=O)[C@H](CCCCN)NC(=O)[C@H](CCCNC(=N)N)NC(=O)[C@H](CC(C)C)NC(=O)[C@H](CC(C)C)NC(=O)[C@H](CO)NC(=O)[C@H](CCCNC(=N)N)NC(C)=O)[C@@H](C)O)[C@@H](C)CC)C(=O)N[C@H](C(N)=O)[C@@H](C)O [NLS-CPP-Hook]	5.6 ± 0.78		44.2 ± 6.9	
CC(=O)N[C@@H](CCCNC(=N)N)C(=O)N[C@@H](CO)C(=O)N[C@@H](CC(C)C)C(=O)N[C@@H](CC(C)C)C(=O)N[C@@H](CCCNC(=N)N)C(=O)N[C@@H](CCCCN)C(=O)N[C@@H](CCCNC(=N)N)C(=O)N[C@@H](CCCNC(=N)N)C(=O)N[C@@H](CCC(N)=O)C(=O)N[C@@H](CCCNC(=N)N)C(=O)NCCOCCOCC(=O)N[C@@H](Cc1ccc(O)cc1)C(=O)NCC(=O)N[C@@H](CCCNC(=N)N)C(=O)N[C@@H](CCCCN)C(=O)N[C@@H](CCCCN)C(=O)N[C@@H](CCCNC(=N)N)C(=O)N[C@@H](CCCNC(=N)N)C(=O)N[C@@H](CCC(N)=O)C(=O)N[C@@H](CCCNC(=N)N)C(=O)N[C@@H](CCCNC(=N)N)C(=O)N[C@@H](CCCNC(=N)N)C(=O)N1CCC[C@H]1C(=O)N1CCC[C@H]1C(N)=O [NLS-CPP]		no significant effect		completely inactive
